# In paper PMC4648050, “Discovery of Inhibitors of Trypanosoma brucei by Phenotypic Screening of a Focused Protein Kinase Library” (Chemmedchem, 2015):
# Columns and labels:
# Type in all cases: biochemical, human/mammalian
# Details in all cases: compound at 10 μM, read-out: % of activity respect of the control
# IRR = IRR (Homo sapiens, UniProt P14616); test: Kinase panel: IRR
# Experimental: (§1) The DDU kinase-focused compound set contains lead-like scaffolds that are designed to target protein kinases; they have kinase hinge binding motifs. Four of the 1H-imidazopyrazinones were screened against a human/mammalian kinase panel at the University of Dundee (http://www.kinase-screen.mrc.ac.uk) at a concentration of 10 μM. At the time of testing the panel contained 79 mammalian kinases selected to provide a broad coverage of the mammalian kinome (∼500 kinases in the human genome).[3] None of the compounds were active against any of the kinases at 10 μM.
# PKA = PKA (Homo sapiens, UniProt P17612); test: Kinase panel: PKA
# Experimental: as §1
# FGF-R1 = FGF-R1 (Homo sapiens, UniProt P11362); test: Kinase panel: FGF-R1
# Experimental: as §1
# PKD1 = biological target: T1, PKD1 (Homo sapiens, UniProt Q15139); test: Kinase panel: PKD1
# T1 sequence (Q15139 1-912): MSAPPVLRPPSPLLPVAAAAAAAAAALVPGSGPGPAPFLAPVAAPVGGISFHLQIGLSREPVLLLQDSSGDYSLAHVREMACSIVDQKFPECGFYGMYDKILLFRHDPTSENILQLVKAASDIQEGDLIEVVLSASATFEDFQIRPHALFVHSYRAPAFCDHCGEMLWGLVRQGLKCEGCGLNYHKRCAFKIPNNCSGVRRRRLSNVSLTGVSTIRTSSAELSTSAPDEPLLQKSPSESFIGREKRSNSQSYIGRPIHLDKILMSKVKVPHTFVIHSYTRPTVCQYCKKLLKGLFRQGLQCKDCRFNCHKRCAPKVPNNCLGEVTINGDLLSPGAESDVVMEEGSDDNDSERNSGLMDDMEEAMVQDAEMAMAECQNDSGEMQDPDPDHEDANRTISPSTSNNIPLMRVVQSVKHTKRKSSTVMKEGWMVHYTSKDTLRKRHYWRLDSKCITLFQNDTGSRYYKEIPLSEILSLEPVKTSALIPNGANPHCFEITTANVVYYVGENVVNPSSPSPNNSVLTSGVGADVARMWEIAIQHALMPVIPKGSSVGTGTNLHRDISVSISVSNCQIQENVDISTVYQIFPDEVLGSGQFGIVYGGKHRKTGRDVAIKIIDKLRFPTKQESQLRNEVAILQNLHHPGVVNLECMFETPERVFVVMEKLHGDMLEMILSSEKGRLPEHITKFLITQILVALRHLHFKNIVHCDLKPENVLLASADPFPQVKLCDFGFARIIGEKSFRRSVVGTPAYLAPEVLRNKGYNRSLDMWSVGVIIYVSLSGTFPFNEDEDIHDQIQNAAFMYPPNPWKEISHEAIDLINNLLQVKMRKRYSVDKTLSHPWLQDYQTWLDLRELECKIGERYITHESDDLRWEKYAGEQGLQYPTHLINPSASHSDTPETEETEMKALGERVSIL
# Experimental: as §1
# IKK epsilon (14231) = biological target: T2, IKK epsilon (14231) (Homo sapiens, UniProt Q14164); test: Kinase panel: IKK epsilon (14231)
# T2 sequence (Q14164 1-716): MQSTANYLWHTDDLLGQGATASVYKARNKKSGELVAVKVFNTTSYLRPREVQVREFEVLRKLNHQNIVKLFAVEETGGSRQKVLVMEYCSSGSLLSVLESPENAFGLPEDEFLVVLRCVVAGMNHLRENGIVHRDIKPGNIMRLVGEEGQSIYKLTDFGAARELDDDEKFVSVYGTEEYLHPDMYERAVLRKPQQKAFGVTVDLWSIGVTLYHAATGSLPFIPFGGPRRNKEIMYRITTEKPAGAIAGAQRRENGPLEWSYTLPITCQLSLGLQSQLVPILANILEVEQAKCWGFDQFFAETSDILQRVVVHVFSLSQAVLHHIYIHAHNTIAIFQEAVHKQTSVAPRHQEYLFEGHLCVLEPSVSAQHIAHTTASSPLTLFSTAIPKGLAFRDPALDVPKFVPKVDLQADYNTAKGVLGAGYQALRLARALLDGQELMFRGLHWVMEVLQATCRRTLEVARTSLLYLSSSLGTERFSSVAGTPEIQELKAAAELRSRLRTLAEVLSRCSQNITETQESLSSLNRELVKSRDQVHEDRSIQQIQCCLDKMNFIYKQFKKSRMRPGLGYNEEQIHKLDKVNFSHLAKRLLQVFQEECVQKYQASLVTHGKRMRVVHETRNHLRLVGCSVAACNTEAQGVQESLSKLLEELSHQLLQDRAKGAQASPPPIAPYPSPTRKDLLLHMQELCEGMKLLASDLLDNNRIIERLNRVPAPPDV
# Experimental: as §1
# DYRK3 = biological target: T3, DYRK3 (Homo sapiens, UniProt O43781); test: Kinase panel: DYRK3
# T3 sequence (O43781 1-588): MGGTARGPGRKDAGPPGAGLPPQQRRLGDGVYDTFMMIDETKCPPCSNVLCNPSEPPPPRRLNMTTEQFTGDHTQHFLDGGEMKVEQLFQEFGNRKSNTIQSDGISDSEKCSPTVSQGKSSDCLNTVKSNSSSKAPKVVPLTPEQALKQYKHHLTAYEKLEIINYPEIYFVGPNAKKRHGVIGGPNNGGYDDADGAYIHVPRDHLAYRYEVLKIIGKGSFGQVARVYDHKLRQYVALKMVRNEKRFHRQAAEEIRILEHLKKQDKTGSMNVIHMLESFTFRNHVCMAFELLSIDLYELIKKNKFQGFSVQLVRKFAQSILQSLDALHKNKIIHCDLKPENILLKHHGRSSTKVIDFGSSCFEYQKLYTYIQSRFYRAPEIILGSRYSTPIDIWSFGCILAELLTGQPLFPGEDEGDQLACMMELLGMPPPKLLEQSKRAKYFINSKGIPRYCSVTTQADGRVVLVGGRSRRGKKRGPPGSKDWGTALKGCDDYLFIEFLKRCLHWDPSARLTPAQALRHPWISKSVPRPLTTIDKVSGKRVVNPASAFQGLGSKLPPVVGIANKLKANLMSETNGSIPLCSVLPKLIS
# Experimental: as §1
# Chain of IRR (P14616 27-1297): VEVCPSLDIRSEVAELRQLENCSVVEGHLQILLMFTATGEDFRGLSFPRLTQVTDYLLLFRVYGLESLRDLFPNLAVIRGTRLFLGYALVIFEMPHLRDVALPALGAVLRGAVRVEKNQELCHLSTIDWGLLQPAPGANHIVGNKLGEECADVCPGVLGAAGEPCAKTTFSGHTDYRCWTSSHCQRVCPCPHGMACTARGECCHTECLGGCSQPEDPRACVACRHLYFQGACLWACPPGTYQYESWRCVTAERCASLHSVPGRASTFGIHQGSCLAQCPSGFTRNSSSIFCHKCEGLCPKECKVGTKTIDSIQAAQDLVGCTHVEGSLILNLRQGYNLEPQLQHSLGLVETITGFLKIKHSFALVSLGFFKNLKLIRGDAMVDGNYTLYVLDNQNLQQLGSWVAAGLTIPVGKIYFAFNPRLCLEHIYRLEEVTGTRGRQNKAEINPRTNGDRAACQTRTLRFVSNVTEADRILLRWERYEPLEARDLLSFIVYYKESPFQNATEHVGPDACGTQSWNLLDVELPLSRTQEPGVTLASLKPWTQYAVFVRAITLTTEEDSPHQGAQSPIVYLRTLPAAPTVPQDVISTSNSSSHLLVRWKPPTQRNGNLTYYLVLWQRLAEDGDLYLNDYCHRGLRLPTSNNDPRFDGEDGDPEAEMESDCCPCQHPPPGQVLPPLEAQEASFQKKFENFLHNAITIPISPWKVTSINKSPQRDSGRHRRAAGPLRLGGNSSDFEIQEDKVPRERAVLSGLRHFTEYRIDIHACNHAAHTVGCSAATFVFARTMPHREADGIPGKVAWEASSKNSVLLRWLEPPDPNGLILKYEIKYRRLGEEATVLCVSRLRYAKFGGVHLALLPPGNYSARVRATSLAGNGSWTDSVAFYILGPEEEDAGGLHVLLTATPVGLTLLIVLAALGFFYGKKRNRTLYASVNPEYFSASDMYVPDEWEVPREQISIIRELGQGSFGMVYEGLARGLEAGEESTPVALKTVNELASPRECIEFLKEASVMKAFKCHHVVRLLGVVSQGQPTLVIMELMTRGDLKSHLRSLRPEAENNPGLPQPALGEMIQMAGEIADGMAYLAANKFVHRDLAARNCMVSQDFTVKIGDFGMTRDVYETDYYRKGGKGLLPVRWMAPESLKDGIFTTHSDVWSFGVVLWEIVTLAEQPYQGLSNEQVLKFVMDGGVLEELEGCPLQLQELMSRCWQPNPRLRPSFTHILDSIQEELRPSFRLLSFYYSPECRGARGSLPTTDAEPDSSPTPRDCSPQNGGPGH
# Chain of FGF-R1 (P11362 22-822): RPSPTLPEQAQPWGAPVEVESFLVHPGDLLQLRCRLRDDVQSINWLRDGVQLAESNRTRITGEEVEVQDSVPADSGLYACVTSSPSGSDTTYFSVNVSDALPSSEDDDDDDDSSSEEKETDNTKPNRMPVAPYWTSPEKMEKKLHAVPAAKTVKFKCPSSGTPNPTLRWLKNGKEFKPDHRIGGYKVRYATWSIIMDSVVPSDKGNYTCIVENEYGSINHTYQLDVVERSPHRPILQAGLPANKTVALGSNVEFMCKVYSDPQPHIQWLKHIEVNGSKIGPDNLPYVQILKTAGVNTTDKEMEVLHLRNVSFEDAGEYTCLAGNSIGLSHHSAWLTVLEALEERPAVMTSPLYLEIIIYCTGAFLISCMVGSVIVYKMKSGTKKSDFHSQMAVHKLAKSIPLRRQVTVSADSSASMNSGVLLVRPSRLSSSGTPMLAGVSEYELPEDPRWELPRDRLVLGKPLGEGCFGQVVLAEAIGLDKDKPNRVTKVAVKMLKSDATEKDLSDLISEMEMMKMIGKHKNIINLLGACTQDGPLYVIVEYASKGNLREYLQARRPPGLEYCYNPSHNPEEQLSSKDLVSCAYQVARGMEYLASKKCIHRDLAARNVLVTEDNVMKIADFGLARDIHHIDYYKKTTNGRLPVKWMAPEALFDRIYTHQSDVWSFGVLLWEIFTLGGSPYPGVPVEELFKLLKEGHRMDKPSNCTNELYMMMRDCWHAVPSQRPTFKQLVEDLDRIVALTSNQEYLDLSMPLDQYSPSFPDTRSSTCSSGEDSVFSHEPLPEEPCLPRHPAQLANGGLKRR
Compound,remaining activity at 10 µM (IRR) [%],remaining activity at 10 µM (PKA) [%],remaining activity at 10 µM (FGF-R1) [%],remaining activity at 10 µM (PKD1) [%],remaining activity at 10 µM (IKK epsilon (14231)) [%],remaining activity at 10 µM (DYRK3) [%]
"C[C@H](c1ccccc1)n1c(=O)[nH]c2ncc(-c3ccccc3)nc21 [Compound 14, (R)-6-Phenyl-1-(1-phenylethyl)-1H-imidazo[4,5-b]pyrazin-2(3H)-one]",112,72,63,44,87,100
"O=c1[nH]c2ncc(-c3ccc(F)cc3)nc2n1C1CCCCC1 [Compound 12, 1-Cyclohexyl-6-(4-fluorophenyl)-1H-imidazo[4,5-b]pyrazin-2(3H)-one]",83,95,96,60,98,99
O=c1[nH]c2ncc(-c3ccc(F)cc3)nc2n1CC1CC1 [Compound 10],104,93,88,40,103,108
CC(c1ccccc1)n1c(=O)[nH]c2ncc(-c3ccc(F)cc3)nc21 (stereo not drawn) [Compound 1],96,87,95,55,124,109
